Patent US20230257372A1 (CHONG KUN DANG PHARMACEUTICAL CORP., priority 2020, published 2023)
Like-named read-outs stand apart in the source and are kept apart here.

Key:
[1] = molecular target: T1, human recombinant HDAC1 (Homo sapiens, UniProt Q13547); experiment: HDAC1 enzyme activity inhibition (HDAC Fluorimetric Drug Discovery Kit); format: biochemical
T1 construct: purchased Enzo Life Science, Inc. BML-SE456
Summary of the method: (§1)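 Each isoform is run in the same format: compound dilutions (5-fold steps), 10 μM substrate, […] enzyme, one hour at 30° C, then 30 minutes with developer before fluorescence readout.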

[2] = molecular target: T2, human recombinant HDAC6 (Homo sapiens, UniProt Q9UBN7); experiment: HDAC6 enzyme activity inhibition (HDAC Fluorimetric Drug Discovery Kit); format: biochemical; settings: for HDAC6 selectivity (fold): HDAC6 over HDAC1; for IC50: human recombinant HDAC6, same protocol as HDAC1
T2 construct: purchased Calbiochem Inc. 382180
T2 sequence (Q9UBN7 1-1215): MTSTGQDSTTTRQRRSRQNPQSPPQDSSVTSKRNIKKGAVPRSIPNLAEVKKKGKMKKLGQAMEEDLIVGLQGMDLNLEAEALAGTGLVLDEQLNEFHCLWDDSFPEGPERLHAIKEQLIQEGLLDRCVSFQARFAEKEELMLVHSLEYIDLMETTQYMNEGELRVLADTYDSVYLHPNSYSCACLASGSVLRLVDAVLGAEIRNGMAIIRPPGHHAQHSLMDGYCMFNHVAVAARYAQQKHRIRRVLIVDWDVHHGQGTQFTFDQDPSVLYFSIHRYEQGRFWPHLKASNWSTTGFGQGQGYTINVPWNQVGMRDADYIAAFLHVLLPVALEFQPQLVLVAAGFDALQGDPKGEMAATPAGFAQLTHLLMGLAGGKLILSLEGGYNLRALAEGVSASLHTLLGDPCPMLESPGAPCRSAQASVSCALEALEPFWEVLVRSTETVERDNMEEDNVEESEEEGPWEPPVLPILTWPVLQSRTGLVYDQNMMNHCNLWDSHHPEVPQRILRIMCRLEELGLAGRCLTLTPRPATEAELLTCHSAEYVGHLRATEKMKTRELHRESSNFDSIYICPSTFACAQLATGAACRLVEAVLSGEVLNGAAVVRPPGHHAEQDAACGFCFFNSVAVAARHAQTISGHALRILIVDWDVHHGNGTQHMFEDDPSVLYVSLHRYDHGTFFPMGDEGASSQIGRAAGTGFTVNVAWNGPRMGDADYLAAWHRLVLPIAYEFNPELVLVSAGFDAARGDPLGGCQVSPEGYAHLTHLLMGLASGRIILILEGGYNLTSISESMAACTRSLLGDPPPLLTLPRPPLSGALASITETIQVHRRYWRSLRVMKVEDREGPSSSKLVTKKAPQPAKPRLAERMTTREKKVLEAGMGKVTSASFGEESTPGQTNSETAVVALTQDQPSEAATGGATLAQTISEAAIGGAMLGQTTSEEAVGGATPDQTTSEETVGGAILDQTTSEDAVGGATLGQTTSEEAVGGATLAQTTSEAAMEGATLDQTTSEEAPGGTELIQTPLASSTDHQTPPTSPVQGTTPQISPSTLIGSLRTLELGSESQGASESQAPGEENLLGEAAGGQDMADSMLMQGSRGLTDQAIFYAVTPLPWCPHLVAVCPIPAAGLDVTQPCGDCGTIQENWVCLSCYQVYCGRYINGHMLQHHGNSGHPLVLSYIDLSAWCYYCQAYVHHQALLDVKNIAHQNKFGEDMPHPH
Summary of the method: as §1

[3] = human recombinant HDAC1, Fluor de Lys substrate, 30° C. 60 minutes, read-out: HDAC1

T1 sequence (Q13547 whole entry): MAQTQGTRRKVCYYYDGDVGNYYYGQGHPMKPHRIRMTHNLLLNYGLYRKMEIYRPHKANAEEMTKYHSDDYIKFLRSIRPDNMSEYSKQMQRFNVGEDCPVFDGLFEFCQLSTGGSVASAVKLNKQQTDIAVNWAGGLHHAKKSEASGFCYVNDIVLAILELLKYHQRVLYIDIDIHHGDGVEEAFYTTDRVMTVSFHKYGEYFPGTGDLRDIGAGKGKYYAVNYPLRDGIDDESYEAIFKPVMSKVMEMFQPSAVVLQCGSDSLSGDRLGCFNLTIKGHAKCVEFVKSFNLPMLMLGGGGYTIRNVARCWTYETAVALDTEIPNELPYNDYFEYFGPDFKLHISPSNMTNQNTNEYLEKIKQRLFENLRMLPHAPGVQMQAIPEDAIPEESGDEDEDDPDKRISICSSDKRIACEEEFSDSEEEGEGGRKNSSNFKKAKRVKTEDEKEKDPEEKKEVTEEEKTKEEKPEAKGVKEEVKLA

Row | SMILES | IC50 [1, 3] [nM] | HDAC6 selectivity (fold) [2] [fold] | IC50 [2] [nM] | IC50 [1] [nM]
1 | CC1CCN(Cc2ccc(-c3cn(Cc4ccc(-c5nnc(C(F)F)o5)cc4F)nn3)cn2)CC1 [Compound 18177, 2-(difluoromethyl)-5-(3-fluoro-4-((4-(6-((4-methylpiperidin-1-yl)methyl)pyridin-3-yl)-1H-1,2,3-triazol-1-yl)methyl)phenyl)-1,3,4-oxadiazole] | > 50000 | 784 | 63.7 | 
2 | Fc1cc(-c2nnc(C(F)F)o2)ccc1Cn1cc(-c2csc(CN3CCC3)c2)nn1 [Compound 18178, 2-(4-((4-(5-(azetidin-1-ylmethyl)thiophen-3-yl)-1H-1,2,3-triazol-1-yl)methyl)-3-fluorophenyl)-5-(difluoromethyl)-1,3,4-oxadiazole] | > 50000 | 657 | 76.1 | 
3 | Fc1cc(-c2nnc(C(F)F)o2)ccc1Cn1cc(-c2csc(CN3CC[C@@H](F)C3)c2)nn1 [Compound 18180, (R)-2-(difluoromethyl)-5-(3-fluoro-4-((4-(5-((3-fluoropyrrolidin-1-yl)methyl)thiophen-3-yl)-1H-1,2,3-triazol-1-yl)methyl)phenyl)-1,3,4-oxadiazole] | > 50000 | 672 | 74.3 | 
4 | Fc1cc(-c2nnc(C(F)F)o2)ccc1Cn1cc(-c2csc(CN3CCCC3)c2)nn1 [Compound 18187, 2-(difluoromethyl)-5-(3-fluoro-4-((4-(5-(pyrrolidin-1-ylmethyl)thiophen-3-yl)-1H-1,2,3-triazol-1-yl)methyl)phenyl)-1,3,4-oxadiazole] | > 50000 | 605 | 82.6 | 
5 | CN(C)Cc1cc(-c2cn(Cc3ccc(-c4nnc(C(F)F)o4)cc3F)nn2)cs1 [Compound 18188, 1-(4-(1-(4-(5-(difluoromethyl)-1,3,4-oxadiazol-2-yl)-2-fluorobenzyl)-1H-1,2,3-triazol-4-yl)thiophen-2-yl)-N,N-dimethylmethanamine] | > 50000 | 668 | 74.8 | 
6 | Fc1cc(-c2nnc(C(F)F)o2)ccc1Cn1cc(-c2ccccn2)nn1 [Compound 18256, 2-(difluoromethyl)-5-(3-fluoro-4-((4-(pyridin-2-yl)-1H-1,2,3-triazol-1-yl)methyl)phenyl)-1,3,4-oxadiazole] | > 50000 | 1144 | 43.7 | 
7 | Fc1cc(-c2nnc(C(F)F)o2)ccc1Cn1cc(-c2cccs2)nn1 [Compound 18258, 2-(difluoromethyl)-5-(3-fluoro-4-((4-(thiophen-2-yl)-1H-1,2,3-triazol-1-yl)methyl)phenyl)-1,3,4-oxadiazole] | > 50000 | 582 | 85.9 | 
8 | Fc1cc(-c2nnc(C(F)F)o2)ccc1Cn1cc(-c2ccc(CN3CC[C@@H](F)C3)cn2)nn1 [Compound 18260, (R)-2-(difluoromethyl)-5-(3-fluoro-4-((4-(5-((3-fluoropyrrolidin-1-yl)methyl)pyridin-2-yl)-1H-1,2,3-triazol-1-yl)methyl)phenyl)-1,3,4-oxadiazole] | > 50000 | 775 | 64.5 | 
9 | Fc1cc(-c2nnc(C(F)F)o2)cnc1Cn1cc(-c2cccnc2)nn1 [Compound 18305, 2-(difluoromethyl)-5-(5-fluoro-6-((4-(pyridin-3-yl)-1H-1,2,3-triazol-1-yl)methyl)pyridin-3-yl)-1,3,4-oxadiazole] | > 50000 | 539 | 92.7 | 
10 | CC1CCN(Cc2ccc(-c3cn(Cc4ncc(-c5nnc(C(F)F)o5)cc4F)nn3)s2)CC1 [Compound 18310, 2-(difluoromethyl)-5-(5-fluoro-6-((4-(5-((4-methylpiperidin-1-yl)methyl)thiophen-2-yl)-1H-1,2,3-triazol-1-yl)methyl)pyridin-3-yl)-1,3,4-oxadiazole] | > 50000 | 986 | 50.7 | 
11 | CN(C)Cc1ccc(-c2cn(Cc3ncc(-c4nnc(C(F)F)o4)cc3F)nn2)s1 [Compound 18311, 1-(5-(1-((5-(5-(difluoromethyl)-1,3,4-oxadiazol-2-yl)-3-fluoropyridin-2-yl)methyl)-1H-1,2,3-triazol-4-yl)thiophen-2-yl)-N,N-dimethylmethanamine] | > 50000 | 934 | 53.5 | 
12 | Fc1cc(-c2nnc(C(F)F)o2)ccc1Cn1cc(-c2ccc(N3CCN(C4CCOCC4)CC3)c(F)c2)nn1 [Compound 18327, 2-(difluoromethyl)-5-(3-fluoro-4-((4-(3-fluoro-4-(4-(tetrahydro-2H-pyran-4-yl)piperazin-1-yl)phenyl)-1H-1,2,3-triazol-1-yl)methyl)phenyl)-1,3,4-oxadiazole] |  | 502 | 99.5 | > 50000
13 | CN(C)Cc1cccc(-c2cn(Cc3ncc(-c4nnc(C(F)F)o4)cc3F)nn2)c1 [Compound 18457, 1-(3-(1-((5-(5-(difluoromethyl)-1,3,4-oxadiazol-2-yl)-3-fluoropyridin-2-yl)methyl)-1H-1,2,3-triazol-4-yl)phenyl)-N,N-dimethylmethanamine] | > 50000 | 554 | 90.1 | 
14 | CC1CCN(Cc2cccc(-c3cn(Cc4ncc(-c5nnc(C(F)F)o5)cc4F)nn3)c2)CC1 [Compound 18459] | > 50000 | 778 | 64.2 | 
15 | Fc1cc(-c2nnc(C(F)F)o2)ccc1Cn1cc(-c2cccc3c2OC(F)(F)O3)nn1 [Compound 18470, 2-(4-((4-(2,2-difluorobenzo[d][1,3]dioxol-4-yl)-1H-1,2,3-triazol-1-yl)methyl)-3-fluorophenyl)-5-(difluoromethyl)-1,3,4-oxadiazole] | > 50000 | 506 | 98.7 | 
16 | CN(C)Cc1cc(Cl)cc(-c2cn(Cc3ccc(-c4nnc(C(F)F)o4)cc3F)nn2)c1 [Compound 18483, 1-(3-chloro-5-(1-(4-(5-(difluoromethyl)-1,3,4-oxadiazol-2-yl)-2-fluorobenzyl)-1H-1,2,3-triazol-4-yl)phenyl)-N,N-dimethylmethanamine] | > 50000 | 970 | 51.5 | 
17 | CN(C)Cc1cccc(-c2cn(Cc3ccc(-c4nnc(C(F)F)o4)cc3F)nn2)c1Cl [Compound 18554, 1-(2-chloro-3-(1-(4-(5-(difluoromethyl)-1,3,4-oxadiazol-2-yl)-2-fluorobenzyl)-1H-1,2,3-triazol-4-yl)phenyl)-N,N-dimethylmethanamine] | > 50000 | 1012 | 49.4 | 
18 | Fc1cc(-c2nnc(C(F)F)o2)cnc1Cn1cc(-c2ccc(CN3CCC3)cn2)nn1 [Compound 18622, 2-(6-((4-(5-(azetidin-1-ylmethyl)pyridin-2-yl)-1H-1,2,3-triazol-1-yl)methyl)-5-fluoropyridin-3-yl)-5-(difluoromethyl)-1,3,4-oxadiazole] | > 50000 | 606 | 82.4 | 
19 | CN(C)Cc1ccc(-c2cn(Cc3ccc(-c4nnc(C(F)F)o4)cc3F)nn2)cc1Cl [Compound 18711, 1-(2-chloro-4-(1-(4-(5-(difluoromethyl)-1,3,4-oxadiazol-2-yl)-2-fluorobenzyl)-1H-1,2,3-triazol-4-yl)phenyl)-N,N-dimethylmethanamine] | > 50000 | 524 | 95.4 | 
